According to patent US20050130890A1, “Amyloid beta is a ligand for FPR class receptors” (priority 2001, published 2005):
Each block holds one compound with its values, some of them ahead of it.

Columns and labels:
FPRL1 [1] = biological target: T1, FPRL1 (Homo sapiens, UniProt P25090); assay: FPRL1 internalization in FPRL1/293 cells, fluorescence confocal microscopy; assay type: cell-based
T1 construct: expressed in transfected cells; host or cells: HEK 293
T1 sequence (P25090 1-351): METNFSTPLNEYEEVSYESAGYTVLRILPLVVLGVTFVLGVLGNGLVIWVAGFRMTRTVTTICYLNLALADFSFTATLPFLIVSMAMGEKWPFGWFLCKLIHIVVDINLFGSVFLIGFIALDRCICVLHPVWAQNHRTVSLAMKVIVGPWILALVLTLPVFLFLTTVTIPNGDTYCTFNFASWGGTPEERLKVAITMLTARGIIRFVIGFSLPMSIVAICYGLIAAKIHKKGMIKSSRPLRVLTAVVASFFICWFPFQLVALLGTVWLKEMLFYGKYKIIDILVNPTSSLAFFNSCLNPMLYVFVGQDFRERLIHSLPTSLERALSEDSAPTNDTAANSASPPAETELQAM
Experimental: (§1) Human peripheral blood monocytes (PBM) were isolated from Buffy coats (Transfusion Medicine Department, NIH Clinical Center, Bethesda, Md.) by using iso-osmotic Percoll gradient. The purity of cell preparations by morphology was >90%. PBM were further differentiated to macrophages by culturing the cells in RPMI 1640 medium containing 0.1% bovine serum albumin, 0.01M HEPES (pH 7.4), and 20 ng/ml monocyte colony stimulating factor (MCSF, Pepro Tech, Rocky Hill, N.J.). The cells were plated on 4-well chamber slides (Nalge Nunc International, Rochester, N.Y.) at a density of 1×10^5 cells/well. HEK293 cells genetically engineered to express FPRL1 cDNA (FPRL1/293 cells) were kindly provided by Dr. P. M. Murphy (National Institute of Allergy and Infectious Diseases, NIH). FPRL1/293 cells were suspended in DMEM supplemented with 10% FBS (Hyclone, Logan, Utah), 1 mM glutamine (Gibco-BRL, Grand Island, N.Y.), and 800 μg/ml geneticin (G418, Gibco-BRL). The cells were also plated on 4-well chamber slides at a density of 2×10^5 cells/well.
Fluorescence confocal microscope. Human macrophages or FPRL1/293 cells grown on chamber slides were treated with FPRL1 agonists for different periods at 37° C. The cells were fixed in 4% paraformaldehyde for 10 min at room temperature. Slides were washed with PBS and incubated with 5% normal goat serum (Sigma) in PBS, 0.05% Tween-20 (PBS-T-NGS), for 1 h to block nonspecific binding sites and for permeabilization. The anti-Aβ42 and anti-FPRL1 antibodies were applied and the slides were incubated for 1 h at room temperature. […] The slides were mounted with an anti-fade, water-based mounting medium with 4,6-diamidino-2-phenylindole (DAPI; Vector Lab, Burlingame, Calif.) and analyzed under a laser scanning confocal fluorescence microscope (Leica TCS-4D DMIRBE, Heidelberg, Germany). Excitation wavelengths of 365 (for DAPI), 488 (for FITC), and 568 (for rhodamine) nm were used to generate fluorescence emission in blue, green, and red respectively. […]

macrophages [2] = assay: Apoptosis of macrophages (annexin-V-FITC/PI flow cytometry); assay type: cell-based, human; conditions: 48 h; 10 μM Aβ42 or 1 μM W pep
Experimental: (§2) Detection of apoptosis. Apoptotic cells were detected by double labeling with annexin-V-FITC and propidium iodide (P1). Annexin-V binds to phosphatidylserine residues, which are translocated from the inner to the outer leaflet of the plasma membrane during the early stages of apoptosis (Koopman G. et al. 1994 Blood 84:1415-1420; Martin S. J. et al. 1995 J Exp Med 182:1545-1556). Necrotic cells were distinguished from annexin-V-positive cells by counterstaining with PI (final concentration 1 μg/ml) (Heidenreich S. et al. 1997 J Immunol 159:3178-3188; Mangan D. F. et al. 1991 J Immunol 146:1541-1546. Apoptotic cells were labeled by using an annexin-V kit according to manufacturer's instructions (Santa Cruz Biotechnology, Santa Cruz, Calif.) and analyzed by flow cytometry.

FPRL1/293 cells = assay: Apoptosis of FPRL1/293 cells (annexin-V-FITC/PI flow cytometry); assay type: cell-based, human; conditions: 48 h; 10 μM Aβ42 or 1 μM W pep
Experimental: as §2

macrophages [3] = assay: Congo red histochemistry of macrophages (fibril formation); assay type: cell-based, human
Experimental: Congo red histochemistry. Cells on chamber slides were fixed with 4% paraformaldehyde and stained with hematoxylin for 2 min at room temperature. After 20 min incubation in a saturated NaCl solution containing 80% ethanol and 0.1% NaOH, the slides were reacted for 20 min with 0.2% Congo red. Destaining and dehydration were completed by washing the slides sequentially in 95% ethanol and 100% ethanol, followed by xylene. Coverslips were applied using Permount and the slides were viewed under light microscopy.

human monocytes [4] = assay: Chemotaxis (migration) of human monocytes, 48-well chamber; assay type: cell-based
Description: (§3) Reagents and cells. Aβ peptide (Aβ42) and the peptide with reversed sequence (Aβ42-1) were purchased from California Peptide Research (Napa, Calif.). All peptides were examined for endotoxin contamination and were negative at highest concentrations used in the study. Human peripheral blood monocytes were isolated from buffy coats (National Institutes of Health Clinical Center, Bethesda, Md.) enriched for mononuclear cells by using iso-osmotic Percoll gradient. The purity of the cell preparations was examined by morphology and was >90%. Rat basophilic leukemia cell line (RBL-2H3) transfected with epitope-tagged N-formylpeptide receptor (FPR) (designated ETFR) was a kind gift of Dr. R. Snyderman (Duke University, Durham, N.C.). cDNA cloning and establishment of FPRL1-transfected human embryonic kidney (HEK) 293 cells (FPRL1/293) were described previously (Gao J. L. & Murphy P. M. 1993 J Biol Chem 268:[…]). All the transfected cells were maintained in culture media as described (Su S. B. et al. 1999 J Exp Med 189:395-402).
(§4) Chemotaxis assays and measurement of calcium mobilization. Chemotaxis assays were performed using 48-well chemotaxis chambers (Deng X. et al. 1999 Blood 94:1165-1673). The results were expressed as the mean number (±SD) of migrated cells in three high-powered fields in three replicate samples. Chemotaxis index, which represented the fold increase in the number of cells migrated in response to chemoattractants over the cell response to control medium, also was used. Ca^+ mobilization was measured by stimulating fura-2 AM-loaded human monocytes or receptor-transfected cells with various agents (Deng X. et al. 1999 Blood 94:1165-1673; Su S. B. et al. 1999 J Exp Med 189:395-402) and recording the ratio of fluorescence at 340 and 380 nm in a luminescence spectrometer with FL WinLab program (Perkin-Elmer, Beaconsfield, UK).

human monocytes [5] = assay: Ca2+ mobilization in fura-2 loaded human monocytes; assay type: cell-based
Description: as §3, §4

[6] = biological target: mouse N-formylpeptide receptor 2 (FPR2), on transfected HEK 293 cells or endogenous on mouse neutrophils and N9 microglial cells (mouse) (UniProt O88536); assay: cell-based or functional assay
FPRL1 [7] = biological target: T1, FPRL1; assay: Chemotaxis of FPRL1/293 cells; assay type: cell-based
Description: (§5) Reagents and cells. Aβ peptide (Aβ42) and the peptide with reversed sequence (Aβ42-1) were purchased from California Peptide Research (Napa, Calif.). All peptides were examined for endotoxin contamination and were negative at highest concentrations used in the study. Human peripheral blood monocytes were isolated from buffy coats (National Institutes of Health Clinical Center, Bethesda, Md.) enriched for mononuclear cells by using iso-osmotic Percoll gradient. The purity of the cell preparations was examined by morphology and was >90%. […]
as §4, with “Chemotaxis assays were performed using 48-well chemotaxis chambers (Deng X. et al. 1999 Blood 94:1165-1673).” left out, “Chemotaxis index, which represented the fold increase in the number of cells migrated in response to chemoattractants over the cell response to control medium, also was used.” left out

FPRL1 [8] = biological target: T1, FPRL1; assay: Aβ42/FPRL1 internalization in human macrophages, fluorescence confocal microscopy; assay type: cell-based; conditions: 30 min incubation at 37° C.
Experimental: as §1, with “FPRL1/293 cells were suspended in DMEM supplemented with 10% FBS (Hyclone, Logan, Utah), 1 mM glutamine (Gibco-BRL, Grand Island, N.Y.), and 800 μg/ml geneticin (G418, Gibco-BRL). The cells were also plated on 4-well chamber slides at a density of 2×10^5 cells/well.” left out
Fluorescence confocal microscope. […] The slides were mounted with an anti-fade, water-based mounting medium with 4,6-diamidino-2-phenylindole (DAPI; Vector Lab, Burlingame, Calif.) and analyzed under a laser scanning confocal fluorescence microscope (Leica TCS-4D DMIRBE, Heidelberg, Germany). Excitation wavelengths of 365 (for DAPI), 488 (for FITC), and 568 (for rhodamine) nm were used to generate fluorescence emission in blue, green, and red respectively. […]

FPRL1 [9] = biological target: T1, FPRL1; assay: Ca2+ mobilization in FPRL1/293 cells; assay type: cell-based
Description: as §5
as §4, with “Chemotaxis assays were performed using 48-well chemotaxis chambers (Deng X. et al. 1999 Blood 94:1165-1673).” left out, “Chemotaxis index, which represented the fold increase in the number of cells migrated in response to chemoattractants over the cell response to control medium, also was used.” left out

FPR = biological target: T2, FPR (Homo sapiens, UniProt P21462); assay: Ca2+ mobilization in ETFR cells (RBL-2H3 transfected with epitope-tagged FPR); assay type: cell-based
T2 construct: expressed in transfected cells; host or cells: RBL-2H3 (rat basophilic leukemia)
T2 sequence (P21462 1-350): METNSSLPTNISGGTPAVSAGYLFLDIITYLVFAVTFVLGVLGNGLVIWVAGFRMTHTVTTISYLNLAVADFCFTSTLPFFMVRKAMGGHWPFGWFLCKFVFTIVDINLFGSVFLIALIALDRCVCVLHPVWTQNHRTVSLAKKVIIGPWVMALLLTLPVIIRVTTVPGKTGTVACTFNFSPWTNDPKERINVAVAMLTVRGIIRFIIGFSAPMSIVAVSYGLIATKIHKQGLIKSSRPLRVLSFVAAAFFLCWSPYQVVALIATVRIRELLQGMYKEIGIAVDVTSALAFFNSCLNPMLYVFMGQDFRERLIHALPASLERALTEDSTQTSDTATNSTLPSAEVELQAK
Description: as §5
as §4, with “Chemotaxis assays were performed using 48-well chemotaxis chambers (Deng X. et al. 1999 Blood 94:1165-1673).” left out, “Chemotaxis index, which represented the fold increase in the number of cells migrated in response to chemoattractants over the cell response to control medium, also was used.” left out

mouse neutrophils [10] = assay: Superoxide production in mouse neutrophils (Diogenes chemiluminescence); assay type: cell-based
Experimental: The cell population was consistently composed of >90% neutrophils, as determined by light microscopy of DiffQuick-stained cytospins. Thus, hereafter we will refer to this cell preparation as neutrophils. Superoxide Production. […] Then a mixture of the superoxide-specific chemiluminescence indicator reagent Diogenes (National Diagnostics, Atlanta, Ga.) was added to the cells (50% of total reaction volume) with appropriate stimuli or vehicle control, and superoxide dismutase-inhibitable chemiluminescence was measured in a luminometer (Labsystems Luminoskan; Helsinki, Finland). […] For sequential stimulation experiments, 5×10^4 FPR −/− neutrophils were distributed into microcentrifuge tubes, and test substances were added. The mixture was then immediately transferred to a chemiluminescence plate. After incubation at 37° C. for 8 min (when fMLF was the first stimulus) or 9 min (when Aβ was the first stimulus), Diogenes reagent plus the final stimulus was added, and the activity was monitored for 10 min. […] Each condition was tested in triplicate, and the mean of the mean number (grand mean) of superoxide dismutase-inhibitable relative light units throughout the duration of the assay and the corresponding standard errors of grand means were calculated. […]

mouse neutrophils [11] = conditions: neutrophils from wild type mice, cited from earlier work

mouse N-formylpeptide receptor 2 (FPR2), on transfected HEK 293 cells or endogenous on mouse neutrophils and N9 microglial cells (mouse), sequence (O88536 whole entry): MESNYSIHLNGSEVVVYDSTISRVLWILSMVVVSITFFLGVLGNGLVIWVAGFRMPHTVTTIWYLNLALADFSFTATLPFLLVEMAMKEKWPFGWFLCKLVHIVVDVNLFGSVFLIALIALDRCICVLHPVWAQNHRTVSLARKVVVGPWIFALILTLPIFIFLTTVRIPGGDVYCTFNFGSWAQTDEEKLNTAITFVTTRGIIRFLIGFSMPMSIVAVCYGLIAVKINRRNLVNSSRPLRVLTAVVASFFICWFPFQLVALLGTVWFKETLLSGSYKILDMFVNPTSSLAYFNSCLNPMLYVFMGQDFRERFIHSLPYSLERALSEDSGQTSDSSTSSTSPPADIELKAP

time to maximal FPRL1 internalization (FPRL1 [1]; 37° C.): 15 to 30 min
time until FPRL1 is back on the cell surface after removal of agonist (receptor recycling) (FPRL1 [1]; agonist removed after 30 min): 2 h
Compound: WKYMVm [W pep]
apoptosis (macrophages [2]): did not increase the apoptosis
apoptosis (FPRL1/293 cells): did not increase the apoptosis
Congo red positive fibrils (macrophages [3]; incubation 24 h to 48 h): did not form Congo red positive fibrils

Compound: Aβ42 “aged”: Aβ42 aged at 37° C., tested as the aggregated form
induction of monocyte migration (human monocytes [4]): lower potency than freshly dissolved peptide

Compound: fucoidan
Ca2+ mobilization in human monocytes (human monocytes [5]): did not induce Ca^2+ mobilization
effect of prior stimulation on subsequent Ca2+ flux response of monocytes to Aβ42 (desensitization) (human monocytes [5]): did not affect monocyte response to subsequent stimulation with Aβ42

Compound: bacterial chemotactic peptide formyl-methionyl-leucyl-phenylalanine (fMLF)
superoxide generation in neutrophils, EC50 in FPR -/- against FPR +/+ cells [6]: 10 fold

Compound: COc1cc2c(c(OC)c1OC)-c1ccc(OC)c(=O)cc1[C@@H](NC(C)=O)CC2 [colchicine]
inhibition of Aβ42-induced chemotaxis (human monocytes [4]; monocytes): potent inhibitor of Aβ42-induced chemotaxis
inhibition of Aβ42-induced chemotaxis (FPRL1 [7]): potent inhibitor of Aβ42-induced chemotaxis
effect on internalization of Aβ42/FPRL1 complexes (FPRL1 [1]; 30 min incubation at 37° C.): failed to internalize
effect on internalization of Aβ42/FPRL1 complexes (FPRL1 [8]): failed to internalize
effect on Congo red staining of macrophages incubated with Aβ42 (macrophages [3]; 48 h incubation with Aβ42): not significantly stained with Congo red

Ca2+ mobilization in FPRL1/293 cells (FPRL1 [9]): stimulated Ca^2+ mobilization
Ca2+ mobilization in ETFR cells (FPR): stimulated Ca^2+ mobilization
Compound: GlyBSA: Glycated bovine albumin, a reported ligand for RAGE
Ca2+ mobilization in human monocytes (human monocytes [5]): potent inducer of Ca^2+ mobilization
effect of prior stimulation on subsequent Ca2+ flux response of monocytes to Aβ42 (desensitization) (human monocytes [5]): able to cross-desensitize the cell response to Aβ42

difference of EC50 of superoxide generation, FPR −/− versus FPR+/+ neutrophils (mouse neutrophils [10]): 10 fold
Compound: CSCC[C@H](NC=O)C(=O)N[C@@H](CC(C)C)C(=O)N[C@@H](Cc1ccccc1)C(=O)O [fMLF, formyl-methionyl-leucyl-phenylalanine]
effect of prior stimulation on subsequent Ca2+ flux response of monocytes to Aβ42 (desensitization) (human monocytes [5]): clearly inhibited the subsequent Ca^2+ flux response to Aβ42
desensitization of Aβ42-induced Ca2+ flux in FPRL1/293 cells (FPRL1 [9]; prior stimulation): desensitized
effect of pretreatment on superoxide response to 10 μM Aβ (mouse neutrophils [10]; FPR −/− neutrophils, pretreated with 5 μM fMLF vs vehicle): markedly attenuated
optimum of second peak of chemotaxis dose-response curve (mouse neutrophils [11]): 10 µM
optimum of first peak of chemotaxis dose-response curve (mouse neutrophils [11]; peak due to FPR): ~500 nM
